The subject of data set [1] is HTLV-IIIB strain of HIV-1. The data set can be described thus: Inhibition of HIV-1 cytopathic effect in CEM cells (XTT). The class given is cell-based. The settings on record: for IC25 (concentration that reduced CPE by 25%): Table V first column. How it is done:
(§1) Quantitative evaluation of the viral inhibition were performed on the T-cell lymphoblastoid cell lines MT-2 (Harada et al., 1985, Science 229:563-566) and CEM (Nara and Fischinger, 1988, Nature 332:469-470). The cells were infected with the HTLV-IIIB strain of HIV-1 from the supernatant fluid of infected human T-lymphocyte cell line H9 (Popovic, M. et al., 1984, Science 224:497-500). Each of these three cell lines are publicly available from the National Institutes of Health (NIH) AIDS Research and Reference Reagent Program. The H9/HTLC-IIIB cell line is available under catalogue number 231, while CEM cell line is available under catalogue number 117 and the MT-2 cell line is available under the catalogue number 237. MT-2 and CEM cells were grown in RPMI 1640 medium supplemented with 10% (v/v) fetal calf serum, 100 U/ml penicillin, 100 μg/ml streptomycin and 25 mM HEPEs buffer. H9 cells were grown in the same medium except 20% fetal calf serum was used. The peptides were diluted in the medium used for MT-2 and CEM cells. Cell cultures were maintained in disposable tissue culture labware at 37° C. in a humidified atmosphere of 5% CO2 in air.
(§2) The inhibitors were dissolved in DMSO at 40 mg/ml or sterile water at 2 mg/ml, then dilutions were made in medium. The dilutions were added to micro-titer plates in 100 μl/well aliquots so that the high drug concentration for each screen was 100 μg/ml after the addition of cells to the well.
(§3) Susceptible MT-2 and CEM cells were grown and the cell population determined by a trypan blue viable cell count. The desired total number of cells were placed in a sterile, disposable 50 ml conical centrifuge tube and virus was added to give an MOI (Multiplicity of Infection) of 0.03 TCID50 /cell (Tissue Culture Infectious Dose) on MT-2 cells and approximately 0.12 TCID50 /cell on CEM cells. Fresh medium was added to adjust the cell density to 1×10^5 cells/ml, then the virus-cell suspension was incubated at 37° C. for 1 to 2 hours until plating. Uninfected controls cell were prepared in the same manner but without the addition of virus. Infected and uninfected cells were added to plates in 100 μl/well aliquots to give a starting cell number of 1×10^4 cells/well. The plates were incubated for seven days in a humidified atmosphere of 5% CO2 in air.
Reagents for colorimetric evaluation of cell viability were prepared by mixing the tetrazolium reagent, XTT, and phenazine methosulfate (PMS) to final concentrations of 200 μg/ml and 0.02 mM, respectively. […] The plates were read with the sealers in place in a Vmax Plate Reader® at 450 nm and 650 nm. The cytopathic effect (CPE) and percentage of cell viability were then calculated. […]

The test system of data set [2] is CEM cells. The class given is cell-based. How it is done: as §1, §2, §3
Reagents for colorimetric evaluation of cell viability were prepared by mixing the tetrazolium reagent, XTT, and phenazine methosulfate (PMS) to final concentrations of 200 μg/ml and 0.02 mM, respectively. Fifty microliters of the XTT-PMS solution was added to each well of the microtiter plates, then the plates were incubated in the CO2 incubator for another four hours. The lids were removed from the plates and replaced with adhesive plate sealers. The plates were read with the sealers in place in a Vmax Plate Reader® at 450 nm and 650 nm. The cytopathic effect (CPE) and percentage of cell viability were then calculated.
The activity and cytotoxicity of several other peptides were also assayed in CEM cells using the same procedure as described above. These assays also included toxicity and activity levels of both 25% and 50%.

Data set [3] concerns Mo-MuLV. The data set can be described thus: Moloney Murine Leukemia Virus Assay, CPE inhibition in SC-1/XC cells. The data set is classed as cell-based. Set-up: key: 4+(>90%); 3+(>60%); 2+(>40%); 1+(>20%); -(Negative). The protocol: (§4) About 3 to 5×10^3 SC-1 cells (available from the American Type Culture Collection, Rockville, Md. under the accession number ATCC CRL-1404) per well of a 96-well microtiter plate were seeded in minimal essential medium supplemented with 5% fetal bovine serum, penicillin (150 U/ml), Streptomycin (150 μg/ml) and polybrene (2 μg/ml), then infected with Mo-MuLV (Multiplicity of Infection=10 PFU/cell) the next day. The virus was allowed to adsorb to the cells for 1 hour, then medium containing serial dilutions of P-7, P-9 or medium alone was added to the cells. Pepstatin A ([…]-Val-Val-Statine-Ala-Statine) and AZT (3'-Azido-3'-deoxythymidine) were also added as controls. After incubation for 5 days (when cells were confluent) the SC-1 cells were UV irradiated for 10 seconds and 5 to 8×10^4 XC cells (ATCC CCL-165) per well were added. Generally, about two additional days of incubation were required to obtain full virus-induced cytopathic effect.

Data set [4] deals with MLV. The data set can be described thus: MLV XC Plaque Reduction Assay - Virus Yield. The class given is cell-based, Murine Leukemia Virus. The protocol: as §4
The assay described above was also preferred to determine the virus yield. In this experiment, the supernatents were removed from the SC-1 cells four days after infection and tested for MLV titers, using the XC-plaque assay as previously described.
On the technique in general: In a plaque reduction assay, fewer plaques than in the control indicate reduced infectivity or spread.

Data set [5] deals with complex of Friend's Spleen-Forcus Virus (Fr. SFFV) and Friend's Murine Leukemia Virus (F. MLV). The data set can be described thus: In vivo inhibition of Friend Virus Complex in DBA/2 mice. The note with it: individual infected DBA/2 mice. Set-up: Spleen / Inhibition % (spleen): dose or concentration left out as unconfirmed. The protocol: Formulations of peptides P-9 and P-7 were prepared for injection into DBA/2 mice. The formulations were prepared by dissolving the purified peptides in Emulphor™ EL620 which was purchased from the GAF Chemical Corporation, 1361 Alps Row, Wayne, N.J., 07470. The drugs were injected intraperitoneally one hour before the mice were infected with a complex of Friend's Spleen-Forcus Virus (Fr. SFFV) and Friend's Murine Leukemia Virus (F. MLV). These viruses ordinarily cause polycythermia (elevated levels of red blood cells) and splenomegaly (enlargement of spleen) within two to three week post-infection. The mice were injected twice daily with the inhibitor formulation for twenty days after the infection.
*Drugs were dissolved in Emulphor ™, injected IP one hour before
infection, then twice daily for 20 days.
^a Titers of Fr.MLV in the spleens (supernatents of 10% homogenates)
were determined by XC plaque assay.

Data set [6] has as its system HTLV-IIIB strain of HIV-1. The data set can be described thus: Inhibition of HIV-1 cytopathic effect in MT-2 cells (XTT). The class given is cell-based. The settings on record: 7 days. How it is done: as §1, with “H9 cells were grown in the same medium except 20% fetal calf serum was used. The peptides were diluted in the medium used for MT-2 and CEM cells. Cell cultures were maintained in disposable tissue culture labware at 37° C. in a humidified atmosphere of 5% CO2 in air.” left out
Susceptible MT-2 and CEM cells were grown and the cell population determined by a trypan blue viable cell count. […]
(§5) Reagents for colorimetric evaluation of cell viability were prepared by mixing the tetrazolium reagent, XTT, and phenazine methosulfate (PMS) to final concentrations of 200 μg/ml and 0.02 mM, respectively. […] The plates were read with the sealers in place in a Vmax Plate Reader® at 450 nm and 650 nm. The cytopathic effect (CPE) and percentage of cell viability were then calculated.
In general terms: Cytopathic effects are the visible damage that an infection or toxin causes in cultured cells.

Data set [7] relates to MT-2 cells. The class given is cell-based. The protocol: as §1, §2, §3, §5

The record followed here is patent publication US6001810A, “Methods for treating retroviral infection” (Eli Lilly and Company, priority 1990, dated 1999).

In brackets after ≈: the same amount, converted by molar mass. Several values for one entry are separate records, joined by “and”; a condition that tells them apart may be missing. Equal entries are not always repeated. Non-standard residues stand in square brackets, D forms with d. Residues, ends and D or L forms follow the SMILES beside them. Phe(4-NH2) = Nc1ccc(C[C@H](N)C(=O)O)cc1; 1Nal = N[C@@H](Cc1cccc2ccccc12)C(=O)O; Sta = CC(C)C[C@H](N)[C@@H](O)CC(=O)O

On to `Cc1cn([C@H]2C[C@H](N=[N+]=[N-])[C@@H](CO)O2)c(=O)[nH]c1=O` [AZT, 3'-Azido-3'-deoxythymidine], for which the IC50 in data set [1] (Human immunodeficiency virus 1, IIIB, CCRF-CEM, Table V, read-out: IC50 (concentration that reduced CPE by 50%)) is less than 0.0032 µg/mL. In addition, the “IC25 (concentration that reduced CPE by 25%)” value in data set [1] was less than 0.0032 µg/mL. Further, the “Maximum inhibition reached (CPE)” value in data set [1] (inhibition decreased as drug concentration increased) worked out at 60%. In addition, the “IC25 (Table V)” value in data set [2] is greater than 1.0 µg/mL. The “TC50 (concentration that reduced cell viability by 50%)” value in data set [2] is greater than 1.0 µg/mL. The CPE inhibition score result in data set [3] (.0004 μg/ml) is “-”; in data set [3] (.0008 μg/ml) it was “-”; in data set [3] (.003 μg/ml), 2+ (2+(>40%)); in data set [3] (.006 μg/ml) it was 3+ (3+(>60%)); in data set [3] (.012 μg/ml), 4+ (4+(>90%)); in data set [3] (.015 μg/ml) it was 1+ (1+(>20%)). The CPE inhibition score in data set [3] (.025 μg/ml), in data set [3] (.05 μg/ml), in data set [3] (.1 μg/ml) and in data set [3] (.2 μg/ml) was 4+ (4+(>90%)) in each case. The Yield was 2.9 × 10^4 PFU/ML in data set [4] (3.125 ng/ml), 80 PFU/ML in data set [4] (6.25 ng/ml), less than 10 PFU/ML in data set [4] (12.5 ng/ml) and less than 10 PFU/ML in data set [4] (25 ag/ml). For the same compound, the “% Inhibition (virus yield)” value in data set [4] (25 ag/ml) is recorded as greater than 99%. The inhibition – broadly, how much of the control response was suppressed – at 0.003125 µg/mL in data set [4] (Murine leukemia virus, 3.125 ng/ml) was 98%. Besides, the inhibition at 0.00625 µg/mL in data set [4] (Murine leukemia virus, 6.25 ng/ml) was greater than 99%. For the same compound, in data set [4] (Murine leukemia virus, 12.5 ng/ml), the inhibition at 0.0125 µg/mL is greater than 99%. In data set [5] (100 pg IP twice daily for 20 days), the “Inhibiton % (virus titer)” value was > 99% and 95%. For the same compound, the “Virus Titer (Fr.MLV in the spleens, XC plaque assay)” value in data set [5] (100 pg IP twice daily for 20 days, supernatents of 10% homogenates) was 500 PFU/ml and 20,000 PFU/ml. In addition, in data set [5] (IP one hour before infection, then twice daily for 20 days), the Spleen was 0.17 gm and 0.21 gm. Further, the “Inhibition % (spleen)” value in data set [5] (IP twice daily for 20 days) was 85% and 81%.

For the compound `Nc1ccn([C@H]2CC[C@@H](CO)O2)c(=O)n1` [DDC, 2', 3Dideoxycytidine], the “IC25 (concentration that reduced CPE by 25%)” value in data set [1] turned out to be 0.0032 µg/mL (≈ 0.0152 µM). In addition, in data set [6], the “ID50 (minimum drug concentration that inhibited CPE by 50%)” value was 0.11 µg/mL and 0.10 µg/mL. In data set [2], the “IC25 (Table V)” value came to 0.04 µg/mL (≈ 0.189 µM) and the “TC50 (concentration that reduced cell viability by 50%)” value was 0.8 µg/mL (≈ 3.79 µM). Moreover, the “MTC50 (minimum cytotoxic drug concentration that reduces cell viability to 50%)” value in data set [7] is greater than 10 µg/mL.

Consider `CC(=O)N[C@@H](Cc1cccc2ccccc12)C(=O)N1CCC[C@H]1C(=O)N[C@@H](Cc1ccccc1)C(=O)N[C@H](C(=O)N[C@@H](CC(C)C)[C@@H](O)CC(=O)N[C@@H](CC(C)C)C(=O)N[C@@H](Cc1ccccc1)C(N)=O)C(C)C` [P-7, Ac NA Pro Phe Val Statine Leu Phe NH2] (Ac-[1Nal]PFV[Sta]LF-NH2), for which, in data set [2], the “IC25 (Table V)” value is greater than 10 µg/mL, the “MTC50 (minimum cytotoxic drug concentration that reduces cell viability to 50%)” value stood at 21 µg/mL and the “TC50 (concentration that reduced cell viability by 50%)” value is greater than 10 µg/mL. In addition, the “MTC50 (minimum cytotoxic drug concentration that reduces cell viability to 50%)” value in data set [7] worked out at 24.4 µg/mL.

Take `CC(C)C[C@H](NC(=O)C[C@H](O)[C@H](CC(C)C)NC(=O)[C@@H](NC(=O)[C@H](Cc1ccccc1)NC(=O)[C@@H]1CCCN1C(=O)[C@@H](N)Cc1c[nH]cn1)C(C)C)C(=O)N[C@@H](Cc1ccccc1)C(=O)N[C@@H](Cc1ccc(N)cc1)C(N)=O` [P-15, H-His Pro Phe Val Statine Leu Phe paF NH2] (H-HPFV[Sta]LF[Phe(4-NH2)]-NH2): the “MTC50 (minimum cytotoxic drug concentration that reduces cell viability to 50%)” value in data set [2] and in data set [7] was greater than 100 µg/mL in each case.
